Measurements from patent EP4635969A1, “NOVEL GLUCOCORTICOID, METHOD FOR PREPARING SAME, AND USE THEREOF” (Tianjin Pharmaceutical Biotechnology Co., Ltd., priority 2022, dated 2024).
Read-outs that look alike come from different tables or passages of the source.

How the values were obtained:
[1] = tested on: epidermal layer in rats; test: Adverse reactions of continuous dermal administration: thickness of the epidermal layer (H&E sections); assay type: in vivo, SD rats; conditions: for thickness of the epidermal layer after continuous dermal administration: compared with the blank control group
Excerpt: Pharmacological Example 10: Experiment on Adverse Reactions of Continuous Dermal Administration in Rats
Animals: SD rats, SPF grade, with an equal number of males and females, weighing 230-250 g.
Animal grouping: After adaptive feeding, the rats were randomly divided into 4 groups. […] One day before administration, the backs of rats were shaved at an area of 5 cm × 6 cm. […] The rats in the blank control group were applied with the blank matrix of corresponding mass on their backs, twice a day for a consecutive week. Table 21. Animal grouping and drug administration dosages for the experiment on adverse reactions of continuous dermal administration in rats
To examine the effects of continuous administration of the test samples on the epidermal layer, the back skin tissues were stained with hematoxylin and eosin (H&E) (magnification ×40), and the thickness of the epidermal layer was quantitatively measured based on the H&E-stained sections.

[2] = biological target: T1, progesterone receptor (PR) (Homo sapiens, UniProt P06401); test: Assay for agonist activity on progesterone receptor (luciferase reporter, HEK293 cells transfected with pBIND-PR plasmid); assay type: cell-based; conditions: for Target selectivity PR/GR: ratio of EC50 values
T1 sequence (P06401 678-933): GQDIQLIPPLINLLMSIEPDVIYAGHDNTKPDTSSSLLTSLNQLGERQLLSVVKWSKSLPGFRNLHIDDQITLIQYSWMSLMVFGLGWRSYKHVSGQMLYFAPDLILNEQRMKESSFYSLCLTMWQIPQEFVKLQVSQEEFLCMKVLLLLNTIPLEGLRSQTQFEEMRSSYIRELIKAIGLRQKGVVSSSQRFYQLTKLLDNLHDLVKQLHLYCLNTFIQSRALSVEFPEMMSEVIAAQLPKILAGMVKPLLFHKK
Method in brief: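 HEK293 cells transiently transfected with pBIND-MR or pBIND-PR, seeded in phenol red-free DMEM with 5% charcoal-stripped serum. Compounds tested as 12-point 4-fold dilutions from 50 µM in duplicate, 0.1% DMSO blank. Luciferase luminescence read, EC50 by nonlinear fit.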

[3] = tested on: inflammatory bowel disease model rats; test: Inflammatory bowel disease experiment (TNBS model): macroscopic injury score of the colon; assay type: in vivo; conditions: for inflammatory response on the intestinal surface / intestinal symptoms: compared with the model group; for Macroscopic injury score: colon, day 5 after TNBS, 2 mg/kg once a day (compounds intraintestinally, dexamethasone by gavage)
Procedure: Pharmacological Example 7: Pharmacodynamic Experiment on Inflammatory Bowel Disease in Rats
Test samples: The jet-milled compounds 23 and 34 were accurately weighed and prepared as 2 mg/mL clear solutions using anhydrous ethanol, respectively. The solutions were then diluted to 0.2 mg/mL with double-distilled water as the test samples, and stored at room temperature protected from light until use.
Animals in Groups 2 to 5 were subjected to trinitrobenzene sulfonic acid (TNBS) modeling as follows: A 5% TNBS aqueous solution was adjusted to 20 mg/mL TNBS (50% ethanol solution) with alcohol and water. After fasting for 24 h, the rats were anesthetized using an inhalation anesthesia machine. A silicone hose was inserted approximately 8 cm into the anus, and then TNBS was injected at a dose of 50 mg/kg. After injection, the rats were placed vertically for 1 min to prevent the backflow of TNBS solution. Then, the rats were placed into their cages for observation until the animals recovered.
Drug administration started one day before modeling, with one dose administered 1 hour before modeling and then once a day for 5 consecutive days. […] Table 14. Animal grouping and drug administration dosages
The experiment ended on day 5 after TNBS modeling. After isoflurane anesthesia, blood was collected from the hearts, and the rats were euthanized. The abdominal cavity was rapidly opened, and the macroscopic injury scoring of the colon in rats was performed based on the adhesion, obstruction, thickening of the colonic wall, colonic congestion, and necrosis in the colon area. After clearing the colonic contents, the colonic samples were longitudinally incised. The proximal 2/3 of the colon was excised, prepared into Swiss rolls, and stored in 4% neutral buffered formalin for histopathological analysis. Tissues were trimmed, dehydrated, paraffin-embedded, and sectioned (approximately 5 µm thickness), stained with hematoxylin-eosin (HE), and observed for pathological changes. Pathologists performed blind scoring of colonic lesions.
Quantitative indices were first subjected to Bartlett's test for homogeneity of variance. When the variance was homogeneous (P > 0.05), one-way analysis of variance (ANOVA) was used for a statistical test; if there was statistical significance (P ≤ 0.05), Dunnett's t-test (Dunnett method) was used to compare intergroup differences; if there was no statistical significance (P > 0.05), the statistical analysis was concluded. When the variance was heterogeneous (P ≤ 0.05), Kruskal-Wallis H rank-sum test (K-W method) was used for statistical analysis: if there was statistical significance (P ≤ 0.05), Mann-Whitney U test (M-W method) was further performed to compare intergroup differences; if there was no statistical significance (P > 0.05), the statistical analysis was concluded.

[4] = tested on: psoriasis model mice; test: Psoriasis experiment (imiquimod model): skin lesion (PASI) score; assay type: in vivo; conditions: for PASI scores: compared with the model group

SMILES | thickness of the epidermal layer after continuous dermal administration [1] | EC50 [2] [nM] | Target selectivity PR/GR [2] | inflammatory response on the intestinal surface / intestinal symptoms [3] | PASI scores [4] | Epidermal layer thickness (µm) ([1]; 100 mg cream on the back twice a day for a week (compounds 1 mg/g, Compound Dexamethasone Acetate 0.75 mg/g)) | EC50 ([2]; EC50 of agonist activity, HEK293 reporter cells, top concentration 50 µM, read-out: Nuclear receptor enzyme activity (nM) PR) [nM] | Macroscopic injury score [3] | PASI score ([4]; day 8 of modeling, 0.2 g cream per mouse daily for 7 days (compounds 1 mg/g, fluticasone propionate 0.5 mg/g))
C[C@]12C=CC(=O)C=C1[C@@H](F)C[C@H]1[C@@H]3C[C@H]4OC(c5ccc(CSC6CCOC6=O)cc5)O[C@@]4(C(=O)SCC#N)[C@@]3(C)C[C@H](O)[C@@]12F (stereo partly drawn) [Compound 35, S-(Cyanomethyl) (2S,6aS,6bR,7S,8aS,8bS,11aR,12aS,12bS)-2,6b-difluoro-7-hydroxy-6a,8a-dimethyl-4-oxo-10-(4-( ((2-oxotetrahydrofuran-3-yl)thio)methyl)phenyl)-1,2,4,6a,6b,7,8,8a,11a,12,12a,12b-dodecahydro-8bH-naphtho[2',1':4,5]indeno[1,2-d][1,3]dioxole-8b-carbothioate] | no significant changes in the thickness of the epidermal layer observed | > 50000 | > 2.4×10^5 | significantly alleviated the intestinal symptoms in inflammatory bowel disease model rats | significantly decreased PASI scores on day 7 |  |  |  | 
C[C@]12C=CC(=O)C=C1CC[C@H]1[C@@H]3C[C@H]4OC(c5ccc(CSC6CCOC6=O)cc5)O[C@@]4(C(=O)CO)[C@@]3(C)C[C@H](O)[C@@]12Cl (stereo partly drawn) [Compound 23, (6aS,6bR,7S,8aS,8bS,11aR,12aS,12bS)-6b-Chloro-7-hydroxy-8b-(2-hydroxyacetyl)-6a,8a-dimethyl-10-(4-(((2-oxotetrahydrofuran-3-yl)thio)methyl)phenyl)-1,2,6a,6b,7,8,8a,8b,11a,12,12a,12b-do decahydro-4H-naphtho[2',1':4,5]indeno[1,2-d][1,3]dioxol-4-one] | no significant changes in the thickness of the epidermal layer were observed |  | > 2.4×10^5 | significantly inhibited the inflammatory response on the intestinal surface | PASI scores significantly decreased on day 7 | 24.3 ± 1.1 | > 50000 | 4.83 ± 1.10" | 3.8 ± 1.0
C[C@]12C=CC(=O)C=C1CC[C@H]1[C@@H]3C[C@H]4OC(c5ccc(COC6CCOC6=O)cc5)O[C@@]4(C(=O)CO)[C@@]3(C)C[C@H](O)[C@@]12F (stereo partly drawn) [Compound 16, (6aS,6bR,7S,8aS,8bS,11aR,12aS,12bS)-6b-Fluoro-7-hydroxy-8b-(2-hydroxyacetyl)-6a,8a-dimethyl-10-(4-(((2-oxotetrahydrofuran-3-yl)oxy)methyl)phenyl)-1,2,6a,6b,7,8,8a,8b,11a,12,12a,12b-do decahydro-4H-naphtho[2',1':4,5]indeno[1,2-d][1,3]dioxol-4-one] | no significant changes in the thickness of the epidermal layer observed | > 50000 | > 1.2×10^5 | significantly alleviated the intestinal symptoms in inflammatory bowel disease model rats | significantly decreased PASI scores on day 7 |  |  |  | 
C[C@]12C=CC(=O)C=C1CC[C@H]1[C@@H]3C[C@H]4OC(c5ccc(CSC6CCOC6=O)nc5)O[C@@]4(C(=O)CO)[C@@]3(C)C[C@H](O)[C@@]12F (stereo partly drawn) [Compound 47, (6aS,6bR,7S,8aS,8bS,11aR,12aS,12bS)-6b-Fluoro-7-hydroxy-8b-(2-hydroxyacetyl)-6a,8a-dimethyl-10-(6-(((2-oxotetrahydrofuran-3-yl)thio)methyl)pyridin-3-yl)-1,2,6a,6b,7,8,8a,8b,11a,12,12a,12 b-dodecahydro-4H-naphtho[2',1':4,5]indeno[1,2-d][1,3]dioxol-4-one] | no significant changes in the thickness of the epidermal layer observed | > 50000 | > 1.5×10^5 | significantly alleviated the intestinal symptoms in inflammatory bowel disease model rats | significantly decreased PASI scores on day 7 |  |  |  | 
C[C@]12C=CC(=O)C=C1[C@@H](F)C[C@H]1[C@@H]3C[C@H]4OC(c5ccc(CSC6CCOC6=O)cc5)O[C@@]4(C(=O)OCF)[C@@]3(C)C[C@H](O)[C@@]12F (stereo partly drawn) [Compound 36, Fluoromethyl (2S,6aS,6bR,7S,8aS,8bS,11aR,12aS,12bS)-2,6b-difluoro-7-hydroxy-6a,8a-dimethyl-4-oxo-10-(4-( ((2-oxotetrahydrofuran-3-yl)thio)methyl)phenyl)-1,2,4,6a,6b,7,8,8a,11a,12,12a,12b-dodecahydro-8bH-naphtho[2',1':4,5]indeno[1,2-d][1,3]dioxole-8b-carboxylate] | no significant changes in the thickness of the epidermal layer observed | > 50000 | > 4.2×10^5 | significantly alleviated the intestinal symptoms in inflammatory bowel disease model rats | significantly decreased PASI scores on day 7 |  |  |  | 
C[C@]12C=CC(=O)C=C1[C@@H](F)C[C@H]1[C@@H]3C[C@H]4OC(c5ccc(CSC6CCOC6=O)cc5)O[C@@]4(C(=O)SCF)[C@@]3(C)C[C@H](O)[C@@]12F (stereo partly drawn) [Compound 34, S-(Fluoromethyl) (2S,6aS,6bR,7S,8aS,8bS,11aR,12aS,12bS)-2,6b-difluoro-7-hydroxy-6a,8a-dimethyl-4-oxo-10-(4-( ((2-oxotetrahydrofuran-3-yl)thio)methyl)phenyl)-1,2,4,6a,6b,7,8,8a,11a,12,12a,12b-dodecahydro-8bH-naphtho[2',1':4,5]indeno[1,2-d][1,3]dioxole-8b-carbothioate] | no significant changes in the thickness of the epidermal layer observed | > 50000 | > 5.0×10^5 | significantly inhibited the inflammatory response on the intestinal surface | significantly decreased PASI scores on day 7 |  |  | 5.00 ± 0.95 | 
C[C@]12C=CC(=O)C=C1CC[C@H]1[C@@H]3C[C@H]4OC(c5ccc(COC6CCOC6=O)cc5)O[C@@]4(C(=O)CO)[C@@]3(C)C[C@H](O)[C@@]12Cl (stereo partly drawn) [Compound 22, (6aS,6bR,7S,8aS,8bS,11aR,12aS,12bS)-6b-Chloro-7-hydroxy-8b-(2-hydroxyacetyl)-6a,8a-dimethyl-10-(4-(((2-oxotetrahydrofuran-3-yl)oxy)methyl)phenyl)-1,2,6a,6b,7,8,8a,8b,11a,12,12a,12b-do decahydro-4H-naphtho[2',1':4,5]indeno[1,2-d][1,3]dioxol-4-one] | no significant changes in the thickness of the epidermal layer observed | > 50000 | > 9.1×10^4 | significantly alleviated the intestinal symptoms in inflammatory bowel disease model rats | significantly decreased PASI scores on day 7 |  |  |  | 
